From patent US20020155088A1, “Tumor treatment by using oligoaniline” (priority 2001, published 2002)

Legend:
ferricytochrome C = experiment: In vitro irradiation-induced superoxide generation (ferricytochrome C reduction); type: biochemical; settings: 25 μM A16S aqueous solution, fluorescence light 27 watts, irradiation time 0, 30, 60, 90 minutes
Protocol: The mixture thus obtained was added into wells of a 24-well plate, and exposed to fluorescence light source (27 watts) for 0-90 minutes. The distance between the plate cover and the light source was 5-6 cm. The reduction extent of ferricytochrome C was evaluated based on its absorbance at 550 nm, which corresponded to the increase of the quantity of reduced ferrocytochrome C.

[1] = test system: Fibrosarcoma cells (CCRC60037) and sarcoma 180 cells; experiment: In vitro irradiation-induced cytotoxicity based on tumor cell viability (MTT/formazon)
Protocol: An in vitro inhibition assay can be performed to preliminarily evaluate an oligoaniline's ability to inhibit the growth of tumor cells. For example, an oligoaniline solution is added to a pre-incubated cell suspension. Subsequently, the cell suspension is irradiated with fluorescence light, followed by further incubation. A 3-(4,5-dimethylthiazol-2-yl)-2,5-diphenyl-tetrazolium bromide solution is then added to the cell suspension to react with mitochrondrial dehydrogenase to form formazon, which is extracted with dimethyl sulfoxide (DMSO). The DMSO extract solution is immediately used for optical measurement to determine the formazon quantity, which correlates with the quantity of dehydrogenase or the relative number of the living cells.
Two types of tumor cells used in this study were prepared as follows: Fibrosarcoma cells (CCRC60037) and sarcoma 180 cells (obtained form Biochemical Institute of Chung Shan Medical and Dental College, Taiwan) were maintained and cultured in an cc-modified eagle medium (MEM) containing L-glutamine and phenol red, 10% fetal bovine serum, and antibiotics (100 units/mL of penicillin G and 100 μg/mL streptomycin sulfate). The cells were incubated in the dark in 95% humidified air plus 5% CO2, harvested by treatment with trypsin-EDTA, and then suspended in an α-MEM at the concentration of 1×10^4 cells/mL.
The cell suspension thus obtained was placed in wells of a 24-well plate (500 μL each) and pre-incubated at 37° C. for 24 hours. A16S solutions of various concentrations (0-10 μM) were then added to the wells (500 μL each). The wells were irradiated with fluorescence light (27 watts) for 0-60 minutes. The distance between the plate cover and the light source was 5-6 cm. After irradiation, the cells were further incubated for 48 hours. A solution of 3-(4,5-dimethylthiazol-2-yl)-2,5-diphenyl-tetrazolium bromide (0.5% in PBS; 100 μL each) was then added to each cell suspension, thereby causing the cells to produce formazon. After incubation at 37° C. for 3 hours, the suspension medium was discarded. Formazon formed in the cells from each well was extracted with DMSO (1.0 mL), and the DMSO extract solution was immediately measured for absorbance at […]. The absorbance directly correlated with the quantity of formazon, and thus with the quantity of dehydrogenase enzyme or the relative number of the living cells (i.e., viability). […] A maximal photodynamic cytotoxicity efficacy of >90% was obtained at an A16S concentration of 5.0-10.0 μM and an irradiation time of 60 minutes.

[2] = test system: Murine sarcoma 180 cells (subcutaneous tumors); experiment: In vivo photodynamic therapy study in tumor-bearing mice; set-up: species or system male ICR mice; settings: 10 mg/kg intraperitoneal
Excerpt: Oligoanilines that show efficacy in preliminary studies can be further tested to confirm their efficacy by an in vivo assay on tumor-bearing mice. For example, see Chiang, et al. Proc. Electrochem. Soc., 1999, 99-12, 238-249. More specifically, a tumor-bearing mouse can be first administered with an oligoaniline to be tested in PBS close to the tumor site. The mouse is then kept in the dark while the oligoaniline is circulated to the tumor site. The tumor site is exposed by removing the hair on and around it, and then irradiated with a laser beam or other light source. After the irradiation, the growth of the tumor in the mouse is examined at different time intervals. The inhibitory effect can be evaluated by measuring the body weights of the mouse and the volumes of the tumor. After the mouse is sacrificed, the final body weight, the weights of various organs, and the final volume and weight of the tumor are measured; and blood is collected for biochemistry and hematology analyses. The data are evaluated used to determine the photodynamic therapeutic and other effects. […]
The mice in groups (1) and (2) were subsequently kept in the dark for 24 hours, and then anesthetized with avertine (0.3 mL/head). […] After the irradiation, the body weights and tumor volumes of the mice were measured every 5 days for 30 days. […]

With Sulfobutylated Hexadecaaniline [A16S] the “amount of superoxide free radicals (ferrocytochrome C absorbance at 550 nm)” value (ferricytochrome C) was “increased as the irradiation time increased”, the cell viability ([1]; A16S 0-10 μM, fluorescence light 27 watts, irradiation 0-60 minutes, 48 hours further incubation) was “decreased as the A16S dosage and irradiation time increased” and the “maximal photodynamic cytotoxicity efficacy” value ([1]; A16S 5.0-10.0 μM, irradiation time 60 minutes) was over 90%. The IC50 ([1]; irradiation time 60 minutes) was 1 µM, the viable cells ([1]; irradiation time 60 minutes, A16S concentration increased from 0 to 2.5 μM) was “a sharp loss of viable cells was observed” and the “cytotoxicity in the absence of light irradiation” value ([1]; no irradiation, highest A16S concentration 10.0 μM) was “no cytotoxicity was observed”. For the same substance, the “average tumor weight relative to tumor control group” value ([2]; laser 633 nm 100 J/cm^2, day 30) was “about 40%” and the “tumor growth rates versus tumor control group” value ([2]; laser 633 nm 100 J/cm^2, entire 30 day study period) was “much lower”.
